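Dose response: 5 concentrations. Exposure: 48 h. Format: 96-well plates. Endpoint: linear interpolation; highest concentration if not reached. GI50: concentration for 50% inhibition of growth. TGI: total growth inhibition.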
What was measured:
Assay in all cases: NCI-60 cell line screen, 48 h
HOP-62 NSCLC = system: HOP-62 NSCLC
PC-3 prostate = system: PC-3 prostate
OVCAR-8 ovarian = system: OVCAR-8 ovarian
M14 melanoma = system: M14 melanoma
HT29 colon = system: HT29 colon
SW-620 colon = system: SW-620 colon
SN12C renal = system: SN12C renal
HS 578T breast = system: HS 578T breast
MOLT-4 leukemia = system: MOLT-4 leukemia
K-562 leukemia = system: K-562 leukemia
SF-268 CNS = system: SF-268 CNS
IGROV1 ovarian = system: IGROV1 ovarian
NCI/ADR-RES ovarian = system: NCI/ADR-RES ovarian
MCF7 breast = system: MCF7 breast
HCT-15 colon = system: HCT-15 colon
A498 renal = system: A498 renal
MALME-3M melanoma = system: MALME-3M melanoma
MDA-MB-231 breast = system: MDA-MB-231 breast
RPMI-8226 leukemia = system: RPMI-8226 leukemia
KM12 colon = system: KM12 colon
SK-OV-3 ovarian = system: SK-OV-3 ovarian
CAKI-1 renal = system: CAKI-1 renal
NCI-H522 lung = system: NCI-H522 lung
NCI-H460 lung = system: NCI-H460 lung
ACHN renal = system: ACHN renal
A549 NSCLC = system: A549 NSCLC
EKVX NSCLC = system: EKVX NSCLC

Compound: NCCN1CCN(c2nc(-c3ccccc3)nc3nc(-c4ccccc4)oc23)CC1
- TGI (HOP-62 NSCLC): 4.55 µM
- GI50 (PC-3 prostate): 1.59 µM
- TGI (PC-3 prostate): 3.06 µM
- GI50 (OVCAR-8 ovarian): 1.98 µM
- TGI (OVCAR-8 ovarian): 4.46 µM
- GI50 (M14 melanoma): 2.04 µM
- TGI (M14 melanoma): 3.72 µM
- GI50 (HT29 colon): 1.97 µM
- TGI (HT29 colon): 4 µM
- GI50 (SW-620 colon): 1.71 µM
- TGI (SW-620 colon): 3.3 µM
- GI50 (SN12C renal): 1.8 µM
- TGI (SN12C renal): 3.5 µM
- GI50 (HS 578T breast): 2.22 µM
- TGI (HS 578T breast): 5.06 µM
- GI50 (MOLT-4 leukemia): 2.08 µM
- TGI (MOLT-4 leukemia): 4.62 µM
- GI50 (K-562 leukemia): 0.287 µM
- TGI (K-562 leukemia): 1.01 µM
- GI50 (SF-268 CNS): 1.85 µM
- TGI (SF-268 CNS): 3.96 µM
- GI50 (IGROV1 ovarian): 1.8 µM
- TGI (IGROV1 ovarian): 3.49 µM
- GI50 (NCI/ADR-RES ovarian): 1.9 µM
- TGI (NCI/ADR-RES ovarian): 3.97 µM
- GI50 (MCF7 breast): 1.31 µM
- TGI (MCF7 breast): 2.86 µM
- GI50 (HCT-15 colon): 1.49 µM
- TGI (HCT-15 colon): 2.97 µM
- GI50 (A498 renal): 1.69 µM
- TGI (A498 renal): 3.31 µM
- GI50 (MALME-3M melanoma): 1.75 µM
- TGI (MALME-3M melanoma): 3.39 µM
- GI50 (MDA-MB-231 breast): 1.83 µM
- TGI (MDA-MB-231 breast): 3.56 µM
- GI50 (RPMI-8226 leukemia): 1.88 µM
- TGI (RPMI-8226 leukemia): 4.62 µM
- GI50 (KM12 colon): 1.86 µM
- TGI (KM12 colon): 3.47 µM
- GI50 (SK-OV-3 ovarian): 1.91 µM
- TGI (SK-OV-3 ovarian): 3.69 µM
- GI50 (CAKI-1 renal): 1.64 µM
- TGI (CAKI-1 renal): 3.17 µM
- GI50 (NCI-H522 lung): 2.16 µM
- TGI (NCI-H522 lung): 5.05 µM
- GI50 (NCI-H460 lung): 1.94 µM
- TGI (NCI-H460 lung): 3.69 µM
- GI50 (ACHN renal): 1.81 µM
- TGI (ACHN renal): 3.29 µM
- GI50 (A549 NSCLC): 1.85 µM
- TGI (A549 NSCLC): 3.91 µM
- GI50 (EKVX NSCLC): 1.67 µM
- TGI (EKVX NSCLC): 3.36 µM
